Laboratory results published in PubChem BioAssay AID2060488 (Molecular Pharmacology Branch, DTP, NCI, 2025).

Tested on: 966289-007-R4-J1-PDC complex spheroid viability
Experiment: Anticancer human tumor 966289-007-R4-J1-PDC patient-derived pancreatic adenocarcinoma cell line growth inhibition [GQUAD]
Settings: for IC50: curve of first compound; for viability, T/C: stronger effect = lower value
Method in brief: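 Multi-cell-type spheroids of tumor cells with HUVEC and mesenchymal stem cells, treated with drug combinations. Concentrations descend in half-log steps from near clinical Cmax, or from 10 microM where Cmax is unknown; viability read-out.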

[1] = second compound 0.0316 µM, first compound 0.000999 µM
[2] = second compound 0.0316 µM, first compound 0.00316 µM
[3] = second compound 0.0316 µM, first compound 0.00999 µM
[4] = second compound 0.0316 µM, first compound 0.0316 µM
[5] = second compound 0.0316 µM, first compound 0.0999 µM
[6] = second compound 0.0316 µM, first compound 0.316 µM
[7] = second compound 0.1 µM, first compound 0.000999 µM
[8] = second compound 0.1 µM, first compound 0.00316 µM
[9] = second compound 0.1 µM, first compound 0.00999 µM
[10] = second compound 0.1 µM, first compound 0.0316 µM
[11] = second compound 0.1 µM, first compound 0.0999 µM
[12] = second compound 0.1 µM, first compound 0.316 µM
[13] = second compound 0.316 µM, first compound 0.000999 µM
[14] = second compound 0.316 µM, first compound 0.00316 µM
[15] = second compound 0.316 µM, first compound 0.00999 µM
[16] = second compound 0.316 µM, first compound 0.0316 µM
[17] = second compound 0.316 µM, first compound 0.0999 µM
[18] = second compound 0.316 µM, first compound 0.316 µM
[19] = second compound 1 µM, first compound 0.000999 µM
[20] = second compound 1 µM, first compound 0.00316 µM
[21] = second compound 1 µM, first compound 0.00999 µM
[22] = second compound 1 µM, first compound 0.0316 µM
[23] = second compound 1 µM, first compound 0.0999 µM
[24] = second compound 1 µM, first compound 0.316 µM
[25] = second compound 3.16 µM, first compound 0.000999 µM
[26] = second compound 3.16 µM, first compound 0.00316 µM
[27] = second compound 3.16 µM, first compound 0.00999 µM
[28] = second compound 3.16 µM, first compound 0.0316 µM
[29] = second compound 3.16 µM, first compound 0.0999 µM
[30] = second compound 3.16 µM, first compound 0.316 µM
[31] = second compound 10 µM, first compound 0.000999 µM
[32] = second compound 10 µM, first compound 0.00316 µM
[33] = second compound 10 µM, first compound 0.00999 µM
[34] = second compound 10 µM, first compound 0.0316 µM
[35] = second compound 10 µM, first compound 0.0999 µM
[36] = second compound 10 µM, first compound 0.316 µM
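Further: spheroids exposed to the agents for seven days before readout.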
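Wherever viability, T/C is given: percent viability relative to DMSO vehicle control wells taken as 100%.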

CCc1c2c(nc3ccc(O)cc13)-c1cc3c(c(=O)n1C2)COC(=O)[C@]3(O)CC + Cc1[nH]c2ccc(F)cc2c1-c1nc2c3cccnc3c3ncccc3c2[nH]1
IC50 (second compound 0.0316 µM): < 0.999 nM | IC50 (second compound 0.1 µM): < 0.999 nM | IC50 (second compound 0.316 µM): < 0.999 nM | IC50 (second compound 1 µM): < 0.999 nM | IC50 (second compound 3.16 µM): < 0.999 nM | IC50 (second compound 10 µM): < 0.999 nM | viability, T/C [1]: 20.7% | viability, T/C [2]: 0.77% | viability, T/C [3]: 0.82% | viability, T/C [4]: 0.49% | viability, T/C [5]: 0.89% | viability, T/C [6]: 0.5% | viability, T/C [7]: 17.3% | viability, T/C [8]: 0.75% | viability, T/C [9]: 0.91% | viability, T/C [10]: 0.51% | viability, T/C [11]: 0.52% | viability, T/C [12]: 0.36% | viability, T/C [13]: 15.4% | viability, T/C [14]: 0.9% | viability, T/C [15]: 0.74% | viability, T/C [16]: 0.45% | viability, T/C [17]: 0.43% | viability, T/C [18]: 0.36% | viability, T/C [19]: 14.3% | viability, T/C [20]: 1.12% | viability, T/C [21]: 0.71% | viability, T/C [22]: 0.56% | viability, T/C [23]: 0.34% | viability, T/C [24]: 0.36% | viability, T/C [25]: 9.81% | viability, T/C [26]: 1.09% | viability, T/C [27]: 0.59% | viability, T/C [28]: 0.67% | viability, T/C [29]: 0.58% | viability, T/C [30]: 0.4% | viability, T/C [31]: 5.35% | viability, T/C [32]: 1.12% | viability, T/C [33]: 0.71% | viability, T/C [34]: 0.43% | viability, T/C [35]: 0.31% | viability, T/C [36]: 0.38%

Cn1ncnc1[C@H]1c2n[nH]c(=O)c3cc(F)cc(c23)N[C@@H]1c1ccc(F)cc1 + Cc1[nH]c2ccc(F)cc2c1-c1nc2c3cccnc3c3ncccc3c2[nH]1
IC50 (second compound 0.0316 µM): 101 nM | IC50 (second compound 0.1 µM): 89.8 nM | IC50 (second compound 0.316 µM): 105 nM | IC50 (second compound 1 µM): 127 nM | IC50 (second compound 3.16 µM): 76.3 nM | IC50 (second compound 10 µM): 63.6 nM | viability, T/C [1]: 108% | viability, T/C [2]: 95.8% | viability, T/C [3]: 105% | viability, T/C [4]: 96.8% | viability, T/C [5]: 50.3% | viability, T/C [6]: 21% | viability, T/C [7]: 101% | viability, T/C [8]: 99.4% | viability, T/C [9]: 106% | viability, T/C [10]: 99.3% | viability, T/C [11]: 44.9% | viability, T/C [12]: 20% | viability, T/C [13]: 101% | viability, T/C [14]: 107% | viability, T/C [15]: 108% | viability, T/C [16]: 105% | viability, T/C [17]: 51.5% | viability, T/C [18]: 18.6% | viability, T/C [19]: 101% | viability, T/C [20]: 103% | viability, T/C [21]: 112% | viability, T/C [22]: 102% | viability, T/C [23]: 58.4% | viability, T/C [24]: 18.6% | viability, T/C [25]: 105% | viability, T/C [26]: 105% | viability, T/C [27]: 110% | viability, T/C [28]: 92.8% | viability, T/C [29]: 36.9% | viability, T/C [30]: 12.1% | viability, T/C [31]: 106% | viability, T/C [32]: 105% | viability, T/C [33]: 109% | viability, T/C [34]: 88.3% | viability, T/C [35]: 25.3% | viability, T/C [36]: 11.6%
